Results reported in patent US20130150399A1, “INHIBITORS OF THE UNFOLDED PROTEIN RESPONSE AND METHODS FOR THEIR USE” (The Board of Trustees of the Leland Stanford Junior …, priority 2006, published 2013).

Key:
[1] = system: IRE1α; assay: Western immunoblot of total IRE1α, HT1080 cells; assay type: cell-based, human; conditions: 2.5 μM, 16 hours
Experimental: (§1) Cells (2×10^6) were cultured in 10-cm dishes, collected using a cell scraper at 4° C., and lysed by addition of 150 μl cell lysis buffer [50 mM Tris pH 7.4, 150 mM NaCl, 10% glycerol, 0.5% Triton X-100. 0.5% NP-40, 2 mM Na3VO4, 20 mM beta-glycerophosphate, 10 mM NaF, 1 mM DTT, 1 mM PMSF). Lysates were centrifuged for 5 min at 10,000×g, and proteins (˜40 μg) were resolved by SDS-PAGE followed by semi-dry transfer to nitrocellulose membranes. Membranes were blocked in TBS-5% milk supplemented with 0.1% Tween-20. The blots were then probed overnight with relevant antibodies, washed, and incubated for 2 hours with species-specific secondary antibodies conjugated to horseradish peroxidase. After washing in block solution, immunoreactive material was detected by enhanced chemiluminescence (SuperSignal West Dura Extended, Pierce, Inc., Rockville, Ill.).
(§2) HT1080 cells were exposed to DMSO vehicle (lane 1), irestatin 9389 (2.5 μM; lane 2) for 16 hours or Tm (5 μg/ml; lane 3) for 8 hours. Following treatments, cells were harvested, lysed, and analyzed by immunoblotting using anti-Grp78 antibody (top) or anti-actin (bottom) as a loading control. […] Cell lysates were analyzed by Western immunoblotting using anti-IRE1α (bottom) or anti-phospho-IRE1α antibodies (top). […] Lysates were analyzed by Western blot using antisera specific for phospho-JNK1 (top) or total JNK1 (bottom). […]

[2] = system: phospho-IRE1α; assay: Western immunoblot of phospho-IRE1α (IRE1α kinase), HT1080 cells; assay type: cell-based, human; conditions: preincubated 16 hours, 2.5 μM; Tm 5 μg/ml
Experimental: as §1, §2

[3] = Potential toxicities of irestatin 9389, increasing i.p. doses; assay type: in vivo
Experimental: Female 4-6 week-old SCID (B6.CB 17) mice supplied by Stanford University Animal Facility were housed in the same facility (American Association of Laboratory Animal Care-approved) with 12 hour light cycles. Food and water were provided ad libitum. All experiments were approved by the institutional care and use committee. The potential toxicities of irestatin 9389 were examined in SCID mice injected i.p. once daily over 4 consecutive days with increasing doses of irestatin 9389 or vehicle control. […] For xenografts, 2×10^6 HT1080 fibrosarcoma cells were resuspended in 50-75 μl PBS and injected s.c. in the dorsal flanks of host mice. When the implanted tumors reached a mean volume of ˜150 mm^3, mice were randomly assigned into different treatment groups. Mice were dosed by i.p. bolus injection with either vehicle (50% DMSO, 20% cremophor EL, 30% ethanol) or irestatin 9389 (50 mg/kg). Tumors (6-8 per group) were measured every 2-4 days with calipers. Tumor volume was calculated using the formula [(W^2×L) 0.52] where W=width and L=length.

Cc1csc(NC(=O)CSc2nc3c(c(C(F)(F)F)c2C#N)CCC3)n1 [Compound 9389]
total level of IRE1α [1]: no significant changes in the total level of IRE1α
levels of phospho-IRE1α after addition of Tm [2]: rapid increase in levels of phospho-IRE1α
toxicity ([3]; dosing regimen of 50-60 mg/kg i.p.): without apparent toxicity
dosing regimen of 50-60 mg/kg as share of the LD50 value ([3]; female, SCID (B6.CB 17), mouse, in vivo, 4 days): 75%
